The values below are quoted from earlier work in EP1921109A2, “Grafted cyclodextrin” (Cellresin Technologies, LLC, priority 2004, dated 2005).

The conditions of one data set: aqueous solutions.
With `COc1c(Cl)cc(Cl)cc1Cl` [TCA, 2,4,6-trichloroanisole], the “Concentrations of TCA detected in untrained panels” value is listed as 20 - 30 ppt.

Still in this data set, the particulars now being: aqueous solutions; as low as.
On to `COc1c(Cl)cc(Cl)cc1Cl` [TCA, 2,4,6-trichloroanisole], for which the “Concentrations of TCA detected by trained panels” value is listed as 5 - 10 ppt.

Settings in a further data set: not given
Take `CCCCCCCCCC=O` [Decanal]: the “Flavor Threshold ppb in Water” value is 1.07 ppb and the “Odor Threshold ppb in Water” value is listed as 0.53 ppb. As for `CCCC(=O)OCC` [Ethyl butyrate], the “Flavor Threshold ppb in Water” value is listed as 0.13 ppb and the “Odor Threshold ppb in Water” value is on record as 0.13 ppb. For `CC(C)=CCC/C(C)=C/C=O` [Geranial], the “Flavor Threshold ppb in Water” value was 40.0 ppb.

For the molecule `CCCCCC=O` [Hexanal], the “Flavor Threshold ppb in Water” value is given as 3.66 ppb and the “Odor Threshold ppb in Water” value is listed as 9.18 ppb. Consider `C=C(C)[C@H]1CC=C(C)CC1` [Limonene], for which the “Flavor Threshold ppb in Water” value is 210 ppb and the “Odor Threshold ppb in Water” value was 60 ppb. On to `C=CC(C)(O)CCC=C(C)C` (centres unmarked) [Linalool], for which the “Flavor Threshold ppb in Water” value is 3.8 ppb and the “Odor Threshold ppb in Water” value was 5.3 ppb. For the molecule `CC(C)=CCC/C(C)=C\C=O` [Neral], the “Flavor Threshold ppb in Water” value is 41.4 ppb and the “Odor Threshold ppb in Water” value is reported as 85 ppb. Consider `CCCCCCCC=O` [Octanal], for which the “Flavor Threshold ppb in Water” value is reported as 0.52 ppb and the “Odor Threshold ppb in Water” value was 1.41 ppb. With `CC1=CCC2CC1C2(C)C` (stereo not drawn) [α-Pinene], the “Flavor Threshold ppb in Water” value is recorded as 1014 ppb and the “Odor Threshold ppb in Water” value was 9.5 ppb.

For `CC1=CCC(C(C)(C)O)CC1` (stereo not drawn) [α-Terpineol], the “Flavor Threshold ppb in Water” value is given as 300 ppb and the “Odor Threshold ppb in Water” value is 280 ppb. With `C=CC(=C)CCC=C(C)C` [β-Myrcene], the “Flavor Threshold ppb in Water” value is on record as 42 ppb and the “Odor Threshold ppb in Water” value is recorded as 36 ppb.
